{
  "source": "paper PMC5617771",
  "about": "(Bioorganic & medicinal chemistry, 2017)",
  "key": {"HIV-1 LAI": {"system": "HIV-1 LAI", "test": "Antiviral activity in MT-2 cells exposed to HIV-1 LAI", "type": "cell-based", "details": "for fold improvement in antiviral assay with respect to 3b: relative to 3b"}, "HIV-1 protease": {"molecular_target": "HIV-1 protease (Human immunodeficiency virus type 1 group M subtype B, UniProt P04585)", "test": "HIV-1 protease enzyme inhibition", "type": "biochemical"}},
  "data": [
    {"smiles": "COc1ccc(S(=O)(=O)N(CC(C)C)C[C@@H](O)[C@H](Cc2ccccc2)NC(=O)c2cccc(C(=O)N(C)Cc3coc(C)n3)c2)cc1", "note": "[Inhibitor 3c, N^1-((2S,3R)-3-hydroxy-4-((N-isobutyl-4-methoxyphenyl)sulfonamido)-1-phenylbutan-2-yl)-N^3-methyl-N^3-((2-methyloxazol-4-yl)methyl)isophthalamide]", "values": [
      {"measurement": "fold improvement in antiviral assay with respect to 3b", "setting": "HIV-1 LAI", "result": "over 20 fold"}
    ]},
    {"smiles": "COc1ccc(S(=O)(=O)N(CC(C)C)C[C@@H](O)[C@H](Cc2ccccc2)NC(=O)c2cccc(C(=O)N(C)Cc3csc(C)n3)c2)cc1", "note": "[Inhibitor 3d, N^1-((2S,3R)-3-hydroxy-4-((N-isobutyl-4-methoxyphenyl)sulfonamido)-1-phenylbutan-2-yl)-N^3-methyl-N^3-((2-methylthiazol-4-yl)methyl)isophthalamide]", "values": [
      {"measurement": "fold enhanced protease inhibitory activity over 3c", "setting": "HIV-1 protease; relative to 3c", "result": 5, "unit": "fold"},
      {"measurement": "fold improvement in antiviral assay with respect to 3b", "setting": "HIV-1 LAI", "result": "over 20 fold"}
    ]},
    {"smiles": "COc1ccc(S(=O)(=O)N(CC(C)C)C[C@@H](O)[C@H](Cc2ccccc2)NC(=O)c2cc(O)cc(C(=O)N(C)Cc3nc(C)oc3C)c2)cc1", "note": "[Inhibitor 3f, N^1-((2,5-dimethyloxazol-4-yl)methyl)-5-hydroxy-N^3-((2S,3R)-3-hydroxy-4-((N-isobutyl-4-methoxyphenyl)sulfonamido)-1-phenylbutan-2-yl)-N^1-methylisophthalamide]", "values": [
      {"measurement": "fold protease inhibitory potency over methylamino analogue 3e", "setting": "HIV-1 protease; relative to 3e", "result": 10, "unit": "fold"}
    ]},
    {"smiles": "COc1ccc(S(=O)(=O)N(CC(C)C)C[C@@H](O)[C@H](Cc2ccccc2)NC(=O)c2cccc(C(=O)N3CCC[C@@H]3c3nc(C)cs3)c2)cc1", "note": "[Inhibitor 4b, N-((2S,3R)-3-hydroxy-4-((N-isobutyl-4-methoxyphenyl)sulfonamido)-1-phenylbutan-2-yl)-3-((R)-2-(4-methylthiazol-2-yl)pyrrolidine-1-carbonyl)benzamide]", "values": [
      {"measurement": "fold improved potency over (S) counterpart 4a", "setting": "HIV-1 protease; relative to 4a", "result": "over 100 fold"}
    ]},
    {"smiles": "COc1ccc(S(=O)(=O)N(CC(C)C)C[C@@H](O)[C@H](Cc2ccccc2)NC(=O)c2cccc(C(=O)N3CCC[C@@H]3c3nc(C)co3)c2)cc1", "note": "[Inhibitor 4h, N-((2S,3R)-3-hydroxy-4-((N-isobutyl-4-methoxyphenyl)sulfonamido)-1-phenylbutan-2-yl)-3-((R)-2-(4-methyloxazol-2-yl)pyrrolidine-1-carbonyl)benzamide]", "values": [
      {"measurement": "fold improved antiviral profile with respect to 4g", "setting": "HIV-1 LAI; relative to 4g", "result": 10, "unit": "fold"}
    ]}
  ]
}
